The source of these data is patent US11851696B2, “Microorganisms and process for producing glycolic acid from pentoses and hexoses” (Institut National Des Sciences Appliquées De Toulouse, priority 2018, dated 2023).

In data set [1] the test system is fructose-6-phosphate aldolase (FSA). Particulars: aldolytic activity on D-arabinose-5-phosphate vs fructose-6-phosphate; cited from earlier work.
For data set [2], the target named is T1, E. coli K12 MG1655 aldehyde dehydrogenase (glycolaldehyde dehydrogenase, AldA), polyhistidine-tagged (aldA-His), wild type, SEQ ID NO: 4 (Escherichia coli, UniProt P25553).
T1 sequence (P25553 1-479): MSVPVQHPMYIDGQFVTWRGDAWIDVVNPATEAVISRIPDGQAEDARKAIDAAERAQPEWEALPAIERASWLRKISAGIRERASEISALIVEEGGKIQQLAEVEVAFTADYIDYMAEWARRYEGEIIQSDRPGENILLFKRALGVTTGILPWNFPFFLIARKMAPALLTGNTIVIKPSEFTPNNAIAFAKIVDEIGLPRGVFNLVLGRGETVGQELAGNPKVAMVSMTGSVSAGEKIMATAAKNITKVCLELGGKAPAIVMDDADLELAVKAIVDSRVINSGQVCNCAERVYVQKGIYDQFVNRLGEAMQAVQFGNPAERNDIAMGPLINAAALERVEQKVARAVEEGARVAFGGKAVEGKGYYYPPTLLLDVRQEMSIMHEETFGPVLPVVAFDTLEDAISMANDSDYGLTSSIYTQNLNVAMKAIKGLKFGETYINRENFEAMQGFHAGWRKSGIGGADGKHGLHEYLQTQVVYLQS
Nature of the data set: AldA (aldehyde dehydrogenase) activity on glycolaldehyde, NADH at 340 nm. Format: biochemical.

Substrate in data set [3]: O=CCO
Nature of the data set: purified protein, by the assay type. The note with it: other: substrate glycolaldehyde, 100 mM Tris, pH 7.5, 10 mM MgCl2, 37° C., 3 mM NAD+, 3 mM ATP.

Substrate in data set [4]: O=P(O)(O)OC[C@H]1OC(O)[C@@H](O)[C@@H]1O
The data set can be described thus: FSA (fructose-6P aldolase) activity on D-arabinose-5P, coupled to AldA or to TPI and G3PDH, NADH at 340 nm. In kind it is biochemical, Escherichia coli K12 MG1655. The note with it: other: substrate D-arabinose-5P, 100 mM Tris, pH 7.5, 10 mM MgCl2, 37° C., coupled to AldA (2 mM NAD+) or TPI/G3PDH (0.4 mM NADH). An excerpt:
To construct a system in vitro, the inventors have cloned the ORFs (“Open Reading Frames”) of the xylose isomerase (XylA), xylulokinase (XylB), arabinose isomerase (AraA), ribulose kinase (AraB), L-ribulose-5-phosphate 4-epimerase (AraD), ribulose-5-phosphate-3-epimerase (RPE), D-arabinose-5-phosphate isomerase (KdsD), fructose-6-phosphate aldolase (FSA corresponding to FSAA such as previously defined) and aldehyde dehydrogenase (AdA) of E. coli K12 MG1655 with a polyhistidine tag for a facilitated purification. The oligonucleotides used for amplifying ORFS of the E. coli enzymes are listed in Table 3 below, the sequences SEQ ID NO: making reference to the appended sequence listing. The E. coli genomic DNA which served as on template is that of the strain K12 MG1655.
The plasmids for the expression of the C-terminal polyhistidine tagged proteins XylA, XylB, AraA, AraB, AraD, AraB, Rpe, KdsD, FSA, AdA have been constructed by HiFi Assembly® (NEB) with pET28a as a receiving vector. pET28a has been linearised beforehand with the restriction enzymes HindIII and BamHI (NEB) (Table 4). The E. coli strain NEB5®, derived from DH5 alpha, has been used for cloning and storing the different plasmids.
All the proteins expressed are soluble and have been produced from the expression vector pET28a transformed in an E. coli strain BL21 (DE3). […]

Regarding `O=P(O)(O)OC[C@H]1OC(O)[C@@H](O)[C@@H]1O` (stereo partly drawn) [D-arabinose-5P, D-arabinose-5-phosphate], in data set [1], the “affinity (times higher than for fructose-6-phosphate)” value is 10 times. `O=CCO` [glycolaldehyde]: the Vmax in data set [2] (substrate glycolaldehyde (5 mM glycoaldehyde in method), 100 mM Tris, pH 7.5, 10 mM MgCl2, 37° C., 3 mM NAD+, 3 mM ATP) is recorded as 1.16 ± 0.31 U mg^−1. Also, in data set [2] (substrate glycolaldehyde, pH 7.5, 37° C.), the Vmax/Km was 5 552 .10^−6 min^−1 mg^−1.

B1: E. coli K12 MG1655 aldehyde dehydrogenase (glycolaldehyde dehydrogenase, AldA), polyhistidine-tagged (aldA-His), wild type, SEQ ID NO: 4 (Escherichia coli K-12) (protein)
chain: MSVPVQHPMYIDGQFVTWRGDAWIDVVNPATEAVISRIPDGQAEDARKAIDAAERAQPEWEALPAIERASWLRKISAGIRERASEISALIVEEGGKIQQLAEVEVAFTADYIDYMAEWARRYEGEIIQSDRPGENILLFKRALGVTTGILPWNFPFFLIARKMAPALLTGNTIVIKPSEFTPNNAIAFAKIVDEIGLPRGVFNLVLGRGETVGQELAGNPKVAMVSMTGSVSAGEKIMATAAKNITKVCLELGGKAPAIVMDDADLELAVKAIVDSRVINSGQVCNCAERVYVQKGIYDQFVNRLGEAMQAVQFGNPAERNDIAMGPLINAAALERVEQKVARAVEEGARVAFGGKAVEGKGYYYPPTLLLDVRQEMSIMHEETFGPVLPVVAFDTLEDAISMANDSDYGLTSSIYTQNLNVAMKAIKGLKFGETYINRENFEAMQGFHAGWRKSGIGGADGKHGLHEYLQTQVVYLQS
As to B1, the Km in data set [3] was found to be 210 ± 50 µM.

B2: E. coli K12 MG1655 fructose-6-phosphate aldolase (FSA, FSAA), polyhistidine-tagged (FSA-His), wild type, SEQ ID NO: 2 (Escherichia coli K-12) (protein)
chain: MELYLDTSDVVAVKALSRIFPLAGVTTNPSIIAAGKKPLDVVLPQLHEAMGGQGRLFAQVMATTAEGMVNDALKLRSIIADIVVKVPVTAEGLAAIKMLKAEGIPTLGTAVYGAAQGLLSALAGAEYVAPYVNRIDAQGGSGIQTVTDLHQLLKMHAPQAKVLAASFKTPRQALDCLLAGCESITLPLDVAQQMISYPAVDAAVAKFEQDWQGAFGRTSI
Regarding B2, in data set [4], the Km amounted to 652 ± 150 µM and the Vmax is 0.26 µmol/min/mg.

Usually Km stands for the substrate concentration at which the rate is half of its maximum.
